One experiment has as its target PDE7A (Homo sapiens (Human), UniProt Q13946). As to the kind of experiment: PDE7A assay: inhibition of PDE7A hydrolysis of [3H]cAMP to [3H]AMP (scintillation proximity, yttrium silicate beads). The format is biochemical. Particulars: 16 nM [3H]cAMP, 30° C., 20 minutes; read-out: PDE 7A IC50. The protocol: (§1) PDE7A and PDE7B Assay. Compounds were tested for their activity by measuring the inhibition of PDE7A or PDE7B hydrolysis of [3H]cAMP to [3H]AMP. Generally, eight dilutions of compound were assayed in 50 mM Tris-HCl pH 7.5, 8.3 mM MgCl2, 0.5 mg/mL BSA, 1.7 mM EGTA, 16 nM [3H]cAMP, and 1% DMSO. PDE7A or PDE7B (typically 1-5 ng/mL) (BPS BioSciences, CA) is added to initiate the reaction. The reaction was incubated at 30° C. for 20 minutes. PDE7A and PDE7B hydrolysis was terminated by the addition of yttrium silicate beads (GE Healthcare, RPNQ0150) and counted on a Wallac Microbeta scintillation counter, 1-2 hours following the addition of the beads. Data was analyzed using XLfit […] from which ICso values were obtained.

Another experiment deals with PDE7B (Homo sapiens (Human), UniProt Q9NP56). Description: PDE7B assay: inhibition of PDE7B hydrolysis of [3H]cAMP to [3H]AMP (scintillation proximity, yttrium silicate beads). Particulars: 16 nM [3H]cAMP, 30° C., 20 minutes; read-out: PDE 7B IC50. The class given is biochemical. The protocol:
as §1
For orientation: SPA uses beads or plates that emit light when radiolabelled molecules are held near them.

Chain of PDE7B (Q9NP56 whole entry): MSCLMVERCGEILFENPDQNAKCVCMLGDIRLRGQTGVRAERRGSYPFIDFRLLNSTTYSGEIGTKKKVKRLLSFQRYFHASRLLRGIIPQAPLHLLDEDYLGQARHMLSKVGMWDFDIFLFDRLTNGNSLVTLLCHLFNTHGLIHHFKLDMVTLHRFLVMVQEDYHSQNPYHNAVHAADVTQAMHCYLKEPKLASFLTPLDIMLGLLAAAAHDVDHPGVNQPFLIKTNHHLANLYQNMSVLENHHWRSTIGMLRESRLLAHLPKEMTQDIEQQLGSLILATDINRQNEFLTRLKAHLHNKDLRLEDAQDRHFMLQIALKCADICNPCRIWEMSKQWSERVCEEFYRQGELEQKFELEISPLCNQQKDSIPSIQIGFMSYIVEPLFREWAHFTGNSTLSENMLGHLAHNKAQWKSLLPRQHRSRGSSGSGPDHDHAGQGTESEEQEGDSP
Chain of PDE7A (Q13946 whole entry): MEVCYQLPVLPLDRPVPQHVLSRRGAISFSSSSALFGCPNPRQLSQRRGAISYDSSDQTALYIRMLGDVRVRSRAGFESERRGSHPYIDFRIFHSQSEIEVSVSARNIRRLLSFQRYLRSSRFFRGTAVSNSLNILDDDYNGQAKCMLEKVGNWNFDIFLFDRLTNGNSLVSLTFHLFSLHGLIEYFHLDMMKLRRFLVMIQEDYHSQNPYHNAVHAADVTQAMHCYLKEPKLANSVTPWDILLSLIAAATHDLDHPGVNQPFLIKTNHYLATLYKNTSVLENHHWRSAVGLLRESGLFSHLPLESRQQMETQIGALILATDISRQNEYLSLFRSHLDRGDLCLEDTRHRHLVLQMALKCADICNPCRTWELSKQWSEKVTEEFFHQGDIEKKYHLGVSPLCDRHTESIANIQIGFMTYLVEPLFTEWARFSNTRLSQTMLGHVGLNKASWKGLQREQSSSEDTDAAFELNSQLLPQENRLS

In the case of `Cc1nn(-c2ccccn2)c2sc(C(=O)N[C@H]3CC[C@H](N4CCOCC4)CC3)cc12` [Compound I-1, 3-methyl-N-((1r,4r)-4-morpholinocyclohex-yl)-1-(pyridin-2-yl)-1H-thieno[2,3-c]pyr-azole-5-carboxamide], the IC50 on PDE7A and at PDE7B was 100 to 500 nM in each case.

As to `Cc1nn(-c2ccccc2Cl)c2sc(C(=O)N[C@H]3CC[C@H](N4CCOCC4)CC3)cc12` [Compound I-2, 1-(2-chlorophenyl)-3-methyl-N-((1r,4r)-4-morpholinocyclohex-yl)-1H-thieno[2,3-c] pyrazole-5-carbox-amide], the IC50 at PDE7A and on PDE7B was 10 to 30 nM each time.

As for `Cc1nn(-c2ccccc2Cl)c2sc(C(=O)N[C@H]3C[C@H](N4CCOCC4)C3)cc12` [Compound I-3, 1-(2-chlorophenyl)-3-methyl-N-((1r,3r)-3-morpholinocyclobut-yl)-1H-thieno[2,3-c] pyrazole-5-carbox-amide], the values for the IC50 at PDE7A and at PDE7B were 10 to 30 nM and 30 to 100 nM, respectively.

For `CC(=O)N1CCN([C@H]2CC[C@H](NC(=O)c3cc4c(C)nn(-c5ccccc5Cl)c4s3)CC2)CC1` [Compound I-4, N-((1r,4r)-4-(4-acetyl-piperazin-1-yl)cyclo-hexyl)-1-(2-chloro-phenyl)-3-methyl-1H-thieno[2,3-c]pyrazole-5-carboxamide], the IC50 on PDE7A and on PDE7B was under 10 nM in each case.

In the case of `CC(=O)N1CCN([C@H]2C[C@H](NC(=O)c3cc4c(C)nn(-c5ccccc5Cl)c4s3)C2)CC1` [Compound I-5, N-((1r,3r)-3-(4-acetyl-piperazin-1-yl)cyclo-butyl)-1-(2-chlorophen-yl)-3-methyl-1H-thieno [2,3-c]pyrazole-5-carboxamide], the IC50 on PDE7A and at PDE7B was 30 to 100 nM throughout.

As to `Cc1nn(-c2ccccc2Cl)c2sc(C(=O)N[C@H]3C[C@H](N4CCN(C5CC5)CC4)C3)cc12` [Compound I-6, 1-(2-chlorophenyl)-N-((1r,3r)-3-(4-cyclo-propylpiperazin-1-yl)-cyclobutyl)-3-methyl-1H-thieno[2,3-c]pyr-azole-5-carboxamide], the IC50 on PDE7A and on PDE7B was 30 to 100 nM in each case.

Take `Cc1nn(-c2ccccc2Cl)c2sc(C(=O)N[C@H]3CC[C@H](N4CC(OC(F)F)C4)CC3)cc12` [Compound I-7, 1-(2-chlorophenyl)-N-((1r,4r)-4-(3-(difluoro-methoxy)azetidin-1-yl)-cyclohexyl)-3-methyl-1H-thieno[2,3-c]pyr-azole-5-carboxamide]: the IC50 at PDE7A and on PDE7B was 10 to 30 nM throughout.

For the molecule `Cc1nn(-c2ccccc2)c2sc(C(=O)N[C@H]3CC[C@H](N4CCOCC4)CC3)cc12` [Compound I-8, 3-methyl-N-((1r,4r)-4-morpholinocyclohex-yl)-1-phenyl-1H-thieno [2,3-c]pyrazole-5-carboxamide], the IC50 on PDE7A and on PDE7B was 100 to 500 nM each time.

As to `Cc1nn(C2C[C@@H](C)O[C@@H](C)C2)c2sc(C(=O)N[C@H]3CC[C@H](N4CCN(C(C)C)CC4)CC3)cc12` (some centres unmarked) [II-1, 1-((2r,6s)-2,6-dimeth-yltetrahydro-2H-pyr-an-4-yl)-N-((1r,4r)-4-(4-isopropylpiperazin-1-yl)cyclohexyl)-3-methyl-1H-thieno [2,3-c]pyrazole-5-carboxamide], the IC50 (commonly the concentration that gives 50% inhibition) lay in the range of 100 to 500 nM on PDE7A and 500 to 2500 nM on PDE7B.

In the case of `CC(=O)N1CCN([C@H]2CC[C@H](NC(=O)c3cc4c(C)nn(C5C[C@@H](C)O[C@@H](C)C5)c4s3)CC2)CC1` (some centres unmarked) [II-2, N-((1r,4r)-4-(4-acetylpiperazin-1-yl)-cyclohexyl)-1-((2r,6s)-2,6-dimeth-yltetrahydro-2H-pyr-ran-4-yl)-3-methyl-1H-thieno[2,3-c]pyr-azole-5-carboxamide], the figures for the IC50 on PDE7A and at PDE7B were 30 to 100 nM and 100 to 500 nM, respectively.

`Cc1nn(C2CCC(F)(F)CC2)c2sc(C(=O)N[C@H]3C[C@H](N4CCC(F)(F)C4)C3)cc12` [II-3, 1-(4,4-difluorocyclo-hexyl)-N-(3-(3,3-difluoropyrrolidin-1-yl)cyclobutyl)-3-methyl-1H-thieno [2,3-c]pyrazole-5-carboxamide]: the IC50 on PDE7A and on PDE7B was 10 to 30 nM each time.

Regarding `Cc1nn(CC(C)C)c2sc(C(=O)N[C@H]3CC[C@H](N4CC(F)(F)C4)CC3)cc12` [II-4, N-((1r,4r)-4-(3,3-difluoroazetidin-1-yl)-cyclohexyl)-1-isobut-yl-3-methyl-1H-thieno [2,3-c]pyrazole-5-carboxamide], the IC50 at PDE7A was in the range of 10 to 30 nM; on PDE7B, 30 to 100 nM.

As for `Cc1nn(CC(C)C)c2sc(C(=O)N[C@H]3CC[C@H](N4CCN(C(C)C)CC4)CC3)cc12` [II-5, 1-isobutyl-N-((1r,4r)-4-(4-isopropylpiper-azin-1-yl)cyclohexyl)-3-methyl-1H-thieno [2,3-c]pyrazole-5-carboxamide], the IC50 on PDE7A fell in the range of 30 to 100 nM; on PDE7B it was 10 to 30 nM.

With `Cc1nn(CC(C)C)c2sc(C(=O)N[C@H]3CC[C@H](N4CCN(C5CC5)CC4)CC3)cc12` [II-6, N-((1r,4r)-4-(4-cyclo-propylpiperazin-1-yl)-cyclohexyl)-1-isobut-yl-3-methyl-1H-thieno[2,3-c]pyrazole-5-carboxamide], the IC50 on PDE7A fell in the range of 10 to 30 nM; on PDE7B, 30 to 100 nM.

With `Cc1nn(CC(C)C)c2sc(C(=O)N[C@H]3CC[C@H](N4CCN(CC(F)(F)F)CC4)CC3)cc12` [II-7, 1-isobutyl-3-methyl-N-((1r,4r)-4-(4-(2,2,2-trifluoroethyl)piper-azin-1-yl)cyclohexyl)-1H-thieno[2,3-c]pyr-azole-5-carboxamide], the concentration for half-maximal inhibition (IC50) on PDE7A and at PDE7B was 30 to 100 nM throughout.

Turning to `Cc1nn(CC(C)C)c2sc(C(=O)N[C@H]3CC[C@H](N4CCN(CC(F)F)CC4)CC3)cc12` [II-8, N-((1r,4r)-4-(4-(2,2-difluoroethyl)piper-azin-1-yl)cyclohexyl)-1-isobutyl-3-methyl-1H-thieno[2,3-c]pyr-azole-5-carboxamide], the half-maximal inhibitory concentration (IC50) on PDE7A and at PDE7B was 30 to 100 nM each time.

`CC(=O)N1CCN([C@H]2CC[C@H](NC(=O)c3cc4c(C)nn(C5CCC(F)(F)CC5)c4s3)CC2)CC1` [II-9, N-((1r,4r)-4-(4-acet-ylpiperazin-1-yl)-cyclohexyl)-1-(4,4-difluorocyclohexyl)-3-methyl-1H-thieno [2,3-c]pyrazole-5-carboxamide]: the IC50 at PDE7A and on PDE7B was under 10 nM in each case.

As for `Cc1nn(C2CCC(F)(F)CC2)c2sc(C(=O)N[C@H]3CC[C@H](N4CCN(C(C)C)CC4)CC3)cc12` [II-10, 1-(4,4-difluorocyclo-hexyl)-N-((1r,4r)-4-(4-isopropylpiper-azin-1-yl)cyclohex-yl)-3-methyl-1H-thieno[2,3-c]pyra-zole-5-carboxamide], the IC50 at PDE7A and at PDE7B was under 10 nM each time.

`Cc1nn(C2CCC(F)(F)CC2)c2sc(C(=O)N[C@H]3CC[C@H](N4CCN(CC(F)F)CC4)CC3)cc12` [II-11, 1-(4,4-difluorocyclo-hexyl)-N-((1r,4r)-4-(4-(2,2-difluoroeth-yl)piperazin-1-yl)-cyclohexyl)-3-meth-yl-1H-thieno[2,3-c] pyrazole-5-carbox-amide]: the concentration for half-maximal inhibition (IC50) on PDE7A and at PDE7B was 10 to 30 nM throughout.

As to `Cc1nn(C2CCC(F)(F)CC2)c2sc(C(=O)N[C@H]3CC[C@H](N4CCN(CC(F)(F)F)CC4)CC3)cc12` [II-12, 1-(4,4-difluorocyclo-hexyl)-N-((1r,4r)-4-(4-(2,2-trifluoroeth-yl)piperazin-1-yl)-cyclohexyl)-3-meth-yl-1H-thieno[2,3-c] pyrazole-5-carbox-amide], the IC50 at PDE7A was under 10 nM; at PDE7B, 10 to 30 nM.

On to `Cc1nn(C2CCC(F)(F)CC2)c2sc(C(=O)N[C@H]3CC[C@H](N4CCOCC4)CC3)cc12` [II-13, 1-(4,4-difluorocyclo-hexyl)-3-methyl-N-((1r,4r)-4-morpho-linocyclohexyl)-1H-thieno[2,3-c]pyrazole-5-carboxamide], for which the IC50 on PDE7A and on PDE7B was 10 to 30 nM in each case.

For the molecule `Cc1nn(CC(C)C)c2sc(C(=O)N[C@H]3CC[C@H](N4CCOCC4)CC3)cc12` [II-14], the IC50 on PDE7A and on PDE7B was 30 to 100 nM each time.

On to `Cc1nn(C2CCC(F)(F)CC2)c2sc(C(=O)N[C@H]3CC[C@H](N4CCN(C5CC5)CC4)CC3)cc12` [II-15, N-((1r,4r)-4-(4-cyclo-propylpiperazin-1-yl)cyclohexyl)-1-(4,4-difluorocyclohexyl)-3-methyl-1H-thieno [2,3-c]pyrazole-5-carboxamide], for which the IC50 on PDE7A and on PDE7B was 10 to 30 nM throughout.

As for `CC(=O)N1CCN([C@H]2CC[C@H](NC(=O)c3cc4c(C)nn(CC(C)C)c4s3)CC2)CC1` [II-16, N-((1r,4r)-4-(4-acet-ylpiperazin-1-yl)-cyclohexyl)-1-iso-butyl-3-methyl-1H thieno[2,3-c]pyrazole-5-carboxamide], the IC50 was in the range of 10 to 30 nM on PDE7A and 30 to 100 nM at PDE7B.

For `Cc1nn(C2CCC(F)(F)CC2)c2sc(C(=O)N[C@H]3CC[C@H](N4CC(F)(F)C4)CC3)cc12` [II-17, N-((1r,4r)-4-(3,3-difluoroazetidin-1-yl)cyclohexyl)-1-(4,4-difluorocyclohexyl)-3-methyl-1H-thieno [2,3-c]pyrazole-5-carboxamide], the IC50 at PDE7A and on PDE7B was under 10 nM each time.

For the origin of these results see patent publication US20250066383A1, “PDE 7 MODULATOR COMPOUNDS” (Omeros Corporation, priority 2023, published 2025).
